Values quoted from earlier work, collected in US4834966A, “Pharmaceutical composition with analgesic activity” (priority 1986, dated 1989).

What was measured:
[1] = background statement
[2] = system: gastrointestinal and oral mucosa; settings: background statement

SMILES: CC(C)Cc1ccc(C(C)C(=O)[O-])cc1.[Na+] (centres unmarked) [Ibuprofen sodium salt]
- solubility in water [1]: good solubility in water
- gastrointestinal effect of solution pH [2]: gives solutions having a pH which produces gastrointestinal damages
